Reference: US20110008466A1, “METHODS AND COMPOSITIONS FOR ALTERING CELL FUNCTION” (ALLTECH, INC., priority 2006, published 2011)

Tests used:
calpain-5 = assay: Expression level of calpain genes after selenium administration; type: in vivo; conditions: tissue not stated; minus = down; asterisk not explained
Protocol: Compositions and methods of the present invention were analyzed to determine if they were capable of altering the expression levels of calpain genes. Compositions comprising various forms of selenium (e.g., SeM, Sod-sel, and SEL-PLEX) were administered to subjects and the expression levels of calpain genes monitored. The expression level of calpain-5 was altered by treatment in the following ways: free selenomethionine (SM)+1.32*, Sod-sel −1.07, SEL-PLEX −1.44*.

Gadd45b [1] = assay: Gene expression, liver tissue; type: in vivo, mice; conditions: vs Se-deficient, minus = down
Source text: (§1) Animal Care. Male C57BL/6J mice were housed singly and started on the experimental diets described below immediately after weaning (21 days of age). The mice were maintained in the Shared Aging Rodent Facility at the William S. Middleton Memorial Veterans Administration Medical Center (Madison, Wis.). Temperature and humidity were maintained at constant levels. Room light was controlled to provide 12-hr cycles of light and dark.
(§2) Experimental diets were created by Harlan Teklad (Madison, Wis.). Selenium content of the diets was determined by Covance Inc. (Madison, Wis.). Five (5) animals were included in each of the following treatment groups: a diet deficient in selenium (SD); a diet supplemented with selenomethionine (SM, obtained from Sigma, St. Louis, Mo.) such that the final selenium content of the diet was one (1) part per million; a diet supplemented with sodium selenite (SS, Sigma) such that the final concentration of selenium in this diet was one (1) part per million; or a diet supplemented with the yeast selenium SEL-PLEX (SP, Alltech, Lexington, Ky.), such that the final concentration of selenium in this diet was one (1) part per million. SEL-PLEX. Mice were provided with water and their respective diet ad libitum for 100 days. […]
(§3) • 1. […] Additionally, a “signal intensity score” was calculated for each probe set as the sum of the signal intensities for all chips (N=20). • 2. […]

[2] = tested on: Gadd45g1p (Growth arrest and DNA-damage inducible 45 gamma interacting protein); assay: Microarray gene expression, mouse cerebral cortex; type: in vivo, mice; conditions: brain; minus = down; * significant relative to Se-deficient animals
Source text: as §1
(§4) Experimental diets were created by Harlan Teklad (Madison, Wis.). Selenium content of the diets was determined by Covance Inc. (Madison, Wis.). Five (5) animals were included in each of the following treatment groups: a diet deficient in selenium (SD); a diet supplemented with selenomethionine (SM, obtained from Sigma, St. Louis, Mo.) such that the final selenium content of the diet was one (1) part per million; a diet supplemented with sodium selenite (SS, Sigma) such that the final concentration of selenium in this diet was one (1) part per million; or a diet supplemented with the yeast selenium SEL-PLEX (SP, Alltech, Lexington, Ky.), such that the final concentration of selenium in this diet was one (1) part per million. SEL-PLEX. Mice were provided with water and their respective diet ad libitum for 100 days. Diets were stored at the dark at 4° C. and fresh diet was added to feeder twice weekly.
(§5) Tissue sample preparation and microarray analysis. Mice were killed at 100 days of age by cervical dislocation. For intestinal expression studies, the intestine was flushed twice with saline solution and small intestine was measured and divided in three equal segments. A 3-cm region of the middle segment of the small intestine corresponding to the jejunum (˜300 mg of tissue) was cut and rinsed again with physiological saline to completely remove contents, flash frozen in liquid nitrogen and stored at −80° C. For brain (e.g., cerebral cortex) studies, the cerebral cortex was separated from the surrounding brain tissue and was flash frozen in liquid nitrogen and stored at −80° C.
(§6) Total RNA was isolated from using the guanidinium isothiocyanate method of TRIZOL (Life Technologies, Grand Island, N.Y.) and individual samples were used for gene expression profiles. Total RNA was cleaned up by RNeasy Mini kit (Qiagen, Valencia, Calif.). Target RNA was prepared by converting […] total RNA into double-strand cDNA using GeneChip Expression 3′-Amplification Reagents One-Cycle cDNA Synthesis Kit (Affymetrix, Santa Clara, Calif.) with a T7-(dT)24 primer incorporating a T7 RNA polymerase promoter. After cleaning up double-strand cDNA using Genechip Sample Cleanup Module (Affymetrix, Santa Clara, Calif.), biotin-labeled cRNA was synthesized from double-strand cDNA using GeneChip Expression 3′-Amplification Reagents for IVT Labeling (Affymetrix, Santa Clara, Calif.). The biotin-labeled cRNA was cleaned up using Genechip Sample Cleanup Module and was fragmented by heating (35 min at 94° C.).
(§7) Fifteen (15) μg of cRNA fragments were hybridized (16 h at 45° C.) to Mouse Genome 430 2.0 Array (Affymetrix, Santa Clara, Calif.) using GeneChip Hybridization Oven 640. After hybridization, the gene chips were automatically washed and stained with streptavidin-phycoerythrin biotinylated anti-streptavidin using Affymetrix GeneChip Fluidics Station 450. The DNA chips were scanned with Affymetrix GeneChip Scanner 3000 (Affymetrix, Santa Clara, Calif.) to detect the cell signal intensities by laser. All calculations were performed with Affymetrix GeneChip Operating Software (GCOS) version 1.3 after scanning
(§8) • 1. The spreadsheet containing probe set identifiers and signal intensity values was opened in Microsoft Excel (version 11.1.1 for the Macintosh OS-X operating system) and summary statistics were generated (mean signal intensity for each treatment group, standard error of the mean). Two-tailed t-tests (equal variance) were performed for the following treatment groups: SM vs. SD, SS vs. SD, and SP vs. SD. […]

Gadd45b [3] = assay: Microarray gene expression, mouse cerebral cortex; type: in vivo, mice; conditions: minus = down
Source text: as §1, §4, §5, §6, §7, §8

[4] = tested on: Complement component 1, q subcomponent binding protein, C1qbp; assay: Microarray gene expression, mouse cerebral cortex; type: in vivo, mice; conditions: vs Se-deficient diet, minus = down, * = significant p<0.01
Source text: as §1, §4, §5, §6, §7, §8

[5] = tested on: Complement component 1, q subcomponent, beta polypeptide, C1qbp; assay: Microarray gene expression, mouse cerebral cortex; type: in vivo, mice; conditions: vs Se-deficient diet, minus = down, * = significant p<0.01
Source text: as §1, §4, §5, §6, §7, §8

[6] = tested on: Growth arrest and DNA-damage-inducible 45 gamma (Gadd45g); assay: Microarray gene expression, mouse intestine; type: in vivo, mice; conditions: vs Se-deficient diet, minus = down
Source text: as §1, §4, §5, §6, §7, §8

[7] = tested on: Growth arrest and DNA-damage-inducible 45 beta (Gadd45b); assay: Microarray gene expression, mouse intestine; type: in vivo, mice; conditions: intestinal tissue; vs Se-deficient; minus = down
Source text: as §1, §4, §5, §6, §7, §8

SOD1 = assay: Microarray gene expression, mouse intestine; type: in vivo, mice; conditions: 1 ppm Se diet 100 days vs Se-deficient diet
Source text: as §1, §4, §5, §6, §7, §8

Selenoprotein W (SelW) = assay: Microarray gene expression, mouse intestine; type: in vivo, mice; conditions: 1 ppm Se diet 100 days vs Se-deficient diet
Source text: as §1, §4, §5, §6, §7, §8

[8] = tested on: Type 1 iodothyronine deiodinase; assay: Microarray gene expression, mouse intestine; type: in vivo, mice; conditions: 1 ppm Se diet 100 days vs Se-deficient diet
Source text: as §1, §4, §5, §6, §7, §8

[9] = tested on: Cu chaperone for SOD (CCS); assay: Microarray gene expression, mouse intestine; type: in vivo, mice; conditions: 1 ppm Se diet 100 days vs Se-deficient diet
Source text: as §1, §4, §5, §6, §7, §8

Thioredoxin Reductase 1 = assay: Microarray gene expression, mouse intestine; type: in vivo, mice; conditions: 1 ppm Se diet 100 days vs Se-deficient diet, all p <0.01
Source text: as §1, §4, §5, §6, §7, §8

SelR (Selenoprotein X1) = assay: Microarray gene expression, mouse intestine; type: in vivo, mice; conditions: 1 ppm Se diet 100 days vs Se-deficient diet
Source text: as §1, §4, §5, §6, §7, §8

Gadd45b [10] = assay: Gene expression, skeletal muscle tissue; type: in vivo, mice; conditions: vs Se-deficient, minus = down
Source text: as §1, §2, §3

[11] = tested on: glycogen synthase kinase-3-beta (GSK-3β); assay: Microarray gene expression, tau kinases, brain; type: in vivo, mice; conditions: vs non-selenium supplemented diet; minus = down; * significant; listed as SS
Source text: as §1, §4, §5
(§9) Total RNA was isolated from using the guanidinium isothiocyanate method of TRIZOL (Life Technologies, Grand Island, N.Y.) and individual samples were used for gene expression profiles. Total RNA was cleaned up by RNeasy Mini kit (Qiagen, Valencia, Calif.). Target RNA was prepared by converting […] total RNA into double-strand cDNA using GeneChip Expression 3′-Amplification Reagents One-Cycle cDNA Synthesis Kit (Affymetrix, Santa Clara, Calif.) with a T7-(dT)24 primer incorporating a T7 RNA polymerase promoter. […]

[12] = tested on: cyclin-dependent kinase 5 (Cdk-5); assay: Microarray gene expression, tau kinases, brain; type: in vivo, mice; conditions: vs non-selenium supplemented diet; minus = down; * significant; listed as SS
Source text: as §1, §4, §5, §9

SMILES: O=[Se](O)O [Sod-sel, sodium selenite]
- expression level of calpain-5 altered by treatment (calpain-5): −1.07
- Fold change Gadd45b gene expression, liv (Table 14) (Gadd45b [1]): 1.25 fold
- FC Gadd45g1p expression (Table 11) [2]: −1.12 fold
- FC Gadd45b expression (Table 11) (Gadd45b [3]; brain, * significant relative to Se-deficient animals): −1.39* fold
- Fold change Gadd45b gene expression, ctx (Table 14) (Gadd45b [3]; cortex tissue, vs Se-deficient): −1.33 fold
- FC C1qbp (C1q binding protein) expression [4]: 1.11 fold
- FC C1q beta polypeptide (printed C1qbp) expression [5]: −1.35 fold
- FC Gadd45g expression (Table 2) [6]: −2.0 (p < 0.01) fold
- Fold change Gadd45b gene expression, int (Table 14) [7]: 1.08 fold
- fold enhanced expression of SOD1 (SOD1): 1.92 fold
- fold upregulation of Selenoprotein W (SelW) expression (Selenoprotein W (SelW)): 5.1 fold
- fold increase in expression of Type 1 iodothyronine deiodinase [8]: 2.8 fold
- fold enhancement in expression of Cu chaperone for SOD (CCS) [9]: 1.28 fold
- fold increase in expression of the Thioredoxin Reductase 1 gene (Thioredoxin Reductase 1): 1.7 fold
- fold upregulation of SelR gene (SelR (Selenoprotein X1)): 1.3 fold
- Fold change Gadd45b gene expression, skm (Table 14) (Gadd45b [10]): −2.42 fold
- FC GsKβ3 (GSK-3β) gene expression [11]: −1.63* fold
- FC CdK5 gene expression [12]: −1.13 fold
